Source: BigSolDB 2.1

CC1=NN(c2ccccc2)C(=O)C1
solubility (mole fraction)
Conditions	283.15 K	288.15 K	293.15 K	298.15 K	303.15 K	313.15 K	323.15 K
in 1,4-dioxane	–	0.027	0.0341	–	0.0483	0.0669	0.1
in acetone	0.0167	–	0.0254	–	0.0371	0.0563	0.108
in acetonitrile	0.00788	–	0.0126	–	0.019	0.0284	0.0438
in dichloromethane	0.0447	0.0499	0.0582	0.0688	0.0788	–	–
in ethanol	0.0176	–	0.024	–	0.0339	0.0457	0.0597
in ethyl acetate	0.0131	–	0.0159	–	0.0198	0.0335	0.0545
in isobutanol	0.0153	–	0.0218	–	0.0288	0.0398	0.0573
in isopropanol	0.0135	–	0.0186	–	0.0268	0.0356	0.0514
in methanol	0.0194	–	0.0278	–	0.0402	0.0562	0.0833
in n-butanol	0.0194	–	0.0272	–	0.0372	0.0504	0.0703
in n-pentanol	0.0245	–	0.0285	–	0.0381	0.05	0.069
in n-propanol	0.0149	–	0.025	–	0.0344	0.0494	0.0689
in sec-butanol	0.0156	–	0.0218	–	0.0296	0.0404	0.0579
in water	0.000153	–	0.000163	–	0.000174	0.000189	0.00021
